According to patent US20150306108A1, “COMPOSITIONS OF ALDH1A1 INHIBITORS AND METHODS OF USE IN TREATING CANCER” (Indiana University Research & Technology Corporation, priority 2014, published 2015):
Like-named read-outs stand apart in the source and are kept apart here.

Legend:
ALDH1A1 = biological target: T1, ALDH1A1 (Homo sapiens, UniProt P00352); test: ALDH1A1 aldehyde oxidation (dehydrogenase) activity assay, NADH formation at 340 nm; assay type: biochemical
T1 construct: made in house
T1 sequence (P00352 1-501): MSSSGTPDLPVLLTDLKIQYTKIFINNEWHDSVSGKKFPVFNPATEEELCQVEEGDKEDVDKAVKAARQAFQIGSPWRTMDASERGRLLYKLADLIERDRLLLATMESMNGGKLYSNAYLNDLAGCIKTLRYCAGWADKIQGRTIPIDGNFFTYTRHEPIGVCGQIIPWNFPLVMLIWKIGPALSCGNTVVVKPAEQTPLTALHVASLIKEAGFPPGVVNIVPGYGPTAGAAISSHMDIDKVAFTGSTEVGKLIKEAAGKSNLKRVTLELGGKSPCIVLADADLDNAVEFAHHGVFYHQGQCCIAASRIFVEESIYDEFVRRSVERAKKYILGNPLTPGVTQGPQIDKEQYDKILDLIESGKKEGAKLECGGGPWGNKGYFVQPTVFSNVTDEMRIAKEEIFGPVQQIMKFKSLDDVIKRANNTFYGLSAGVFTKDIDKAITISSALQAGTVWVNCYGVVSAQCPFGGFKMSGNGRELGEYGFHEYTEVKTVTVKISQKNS

ALDH1A2 = biological target: T2, ALDH1A2 (Homo sapiens, UniProt O94788); test: biochemical; assay type: biochemical; details: Table 4; NI/NI(A) at 100 μM compound; read-out: IC50 in μM (SE) ALDH1A2
T2 sequence (O94788 1-518): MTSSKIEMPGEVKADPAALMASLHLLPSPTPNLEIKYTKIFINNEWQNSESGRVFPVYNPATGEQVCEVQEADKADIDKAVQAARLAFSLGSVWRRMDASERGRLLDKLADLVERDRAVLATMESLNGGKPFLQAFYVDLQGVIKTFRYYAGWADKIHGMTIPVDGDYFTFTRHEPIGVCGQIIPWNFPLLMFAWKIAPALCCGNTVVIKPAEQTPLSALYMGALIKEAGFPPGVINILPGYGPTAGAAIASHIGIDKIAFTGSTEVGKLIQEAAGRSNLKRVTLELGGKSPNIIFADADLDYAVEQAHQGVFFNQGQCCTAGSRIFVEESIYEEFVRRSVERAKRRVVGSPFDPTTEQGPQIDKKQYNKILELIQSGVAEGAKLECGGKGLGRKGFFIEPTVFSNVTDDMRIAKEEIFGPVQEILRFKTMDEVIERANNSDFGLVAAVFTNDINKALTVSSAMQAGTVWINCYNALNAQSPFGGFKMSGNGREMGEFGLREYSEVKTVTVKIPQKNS

ALDH3A1 = biological target: T3, ALDH3A1 (Homo sapiens, UniProt P30838); test: ALDH3A1 benzaldehyde oxidation activity assay; assay type: biochemical; details: Table 4; NI/NI(A) at 100 μM compound; read-out: IC50 in μM (SE) ALDH3A1
T3 construct: made in house
T3 sequence (P30838 1-453): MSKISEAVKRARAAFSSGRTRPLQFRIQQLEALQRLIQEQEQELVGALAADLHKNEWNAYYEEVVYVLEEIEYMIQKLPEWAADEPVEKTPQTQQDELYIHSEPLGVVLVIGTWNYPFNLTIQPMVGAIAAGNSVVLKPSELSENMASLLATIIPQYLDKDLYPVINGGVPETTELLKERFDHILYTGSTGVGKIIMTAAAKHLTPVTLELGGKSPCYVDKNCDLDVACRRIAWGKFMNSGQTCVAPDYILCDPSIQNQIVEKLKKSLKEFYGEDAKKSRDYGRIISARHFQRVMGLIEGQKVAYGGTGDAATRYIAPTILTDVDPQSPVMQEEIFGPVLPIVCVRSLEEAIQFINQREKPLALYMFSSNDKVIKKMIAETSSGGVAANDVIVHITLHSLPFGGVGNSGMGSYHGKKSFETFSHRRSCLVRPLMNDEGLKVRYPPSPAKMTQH
Description: Hits from the HTS were ordered from ChemDiv to determine if they had any effect on aldehyde oxidation and whether they were selective for ALDH1A1 compared to ALDH2 and ALDH3A1. Dehydrogenase activity of the three isoenzymes were assayed by monitoring the production of NADH at 340 nm (molar extinction coefficient of 6220 M^−1 cm^−1) on a Beckman DU-640 or Cary 300 Bio UV-Vis spectrophotometer for 2 to 3 minutes. For ALDH1A1 and ALDH2, the reaction contained 100-200 nM enzyme, 200 μM NAD^+, 100 μM propionaldehyde, and 1% DMSO in 50 mM Na^+ BES, pH 7.5 at room temperature. For ALDH3A1, the reaction contained 20 nM enzyme, 200 μM NAD^+, 300 μM benzaldehyde, and 1% DMSO in either 100 mM sodium phosphate or 50 mM Na^+ BES at pH 7.5 at room temperature.
For most compounds, 20 μM concentration was used for the selectivity assays. […] Following a 2 minute incubation of enzyme, compound, and NAD^+, the reaction was initiated by adding substrate. […] Data were fit to the four parameter EC50 equation using SigmaPlot (StatSys v12.3).
Dehydrogenase activity of purified recombinant ALDH1A1, ALDH1A2, ALDH1A3, ALDH1B1, ALDH2, and ALDH3A1 was assayed spectrophotometrically by monitoring the formation of NADH at 340 nm (molar extinction coefficient of 6220 M^−1 cm^−1) on a Beckman DU-640 or Cary 300 Bio UV-Vis spectrophotometer. Characterization of ALDH1A1 WT and ALDH1A1 G458N were performed by co-varying acetaldehyde and NAD^+ concentrations in reactions containing 150-300 nM enzyme, 50-500 μM or 20-200 μM acetaldehyde, and 50-500 μM NAD^+ in 50 mM sodium BES, pH 7.5 at 25° C. Reactions were initiated by adding enzyme. Selectivity of compounds for dehydrogenase activity of ALDH1A1, ALDH1A2, ALDH1A3, ALDH1B1 and ALDH2 were measured in a solution containing 100-200 nM enzyme, 200 μM NAD^+, 1% DMSO, and 100 μM propionaldehyde (non-saturating for all enzymes tested, except ALDH2) in 50 mM sodium BES. ALDH3A1 activity was measured under the following conditions: 25 nM enzyme, 200 μM NAD^+, 1% DMSO, and 300 μM benzaldehyde (˜KM) in either 100 mM sodium phosphate buffer, pH 7.5 or 50 mM sodium BES, pH 7.5. All assays were performed at 25° C. and were initiated by the addition of the aldehyde substrate following a 2 minute pre-incubation with compound and cofactor. Selectivity was initially tested using 20 μM compound, with ALDH1A1-selective modulators further tested using 100 μM compound. […] After a 2 minute pre-incubation with compound and NAD^+, all reactions were initiated by the addition of propionaldehyde. Data were fit to the four parameter EC50 equation using SigmaPlot (StatSys v12.3). The values represent the average of three independent experiments (each n=3). The mode of inhibition was determined via steady-state kinetics by co-varying inhibitor and substrate concentrations at fixed concentration of the second substrate. All reactions contained 100-150 nM ALDH1A1 and 1% DMSO in 50 mM sodium BES, pH 7.5 at 25° C. […] All data were fit to competitive, noncompetitive, uncompetitive, and mixed inhibition models using both single substrate-single inhibitor or tight binding inhibition programs in SigmaPlot (StatSys v12.3). The appropriate model was selected through analysis of goodness-of-fit and the residuals of those fits. The values represent the average of three independent experiments (each n=3) using at least two protein preps.
ALDH1A1, ALDH1A2, ALDH1A3, ALDH2, and ALDH3A1 were produced and purified as previously described. A highthroughput screen (HTS) of 64,000 compounds from the ChemDiv Corp. was performed to identify activators and inhibitors of ALDH1A1. The hydrolysis of para-nitrophenylacetate was used as a measure ALDH1A1 activity (see SM). Selectivity for closely related orthologs was tested at 20 and 100 μM using purified recombinant human ALDH1A1, ALDH1A2, ALDH1A3, ALDH2, and ALDH3A1. […]

IGROV1 cells = test: Spheroid formation under low attachment culture conditions; assay type: cell-based, human; details: 50 μM, 7 days, low attachment
Description: Ovarian cancer cell lines or primary cells were seeded at a concentration of 25,000 cells/ml in Mammocult complete medium (StemCell Technologies) and ultra-low attachment plates (Corning, Corning, N.Y.). Spheroids were trypsinized every 7 days and re-plated to generate successive generations. To observe spheroid morphology, A2780, SKOV3, IGROV1, and primary cells were cultured in a rotating bioreactor (Synthecon, Houston, Tex.) until […] compact spheroids were visible (10-30 days). They were harvested, preserved with Histochoice MB Tissue Fixative (Amresco, Solon, Ohio) for 1 hour, and embedded in Immuno-bed resin (Polysciences, Warrington, Pa.). Two micron thick sections were cut on an ultramicrotome and stained with 0.1% methylene blue/0.15% basic fuchsin in 50% methanol.
Cell viability was measured by the trypan blue (ThermoScientific) exclusion test. Cell proliferation was quantified by the MTT assay. Spheroids were counted after centrifugation at 300×g for 5 minutes. All assays were performed in four replicates. Data are presented as means±SEM.

[1] = 100 μM propionaldehyde, 200 μM NAD+, mean/SEM of three independent assays, read-out: IC50 values with ALDH1A1 for compounds that inhibit dehydrogenase activity
[2] = list of inhibitors in summary and description, read-out: IC50 with the listed inhibitors of ALDH1A1 activity

| Compound | IC50 (ALDH1A1; [1]) [nM] | IC50 (ALDH1A1; [2]) [nM] | further results |
| --- | --- | --- | --- |
| C=CCc1cccc(CNc2nc3ccccc3n2CCC)c1O [CM010] | 1300 | 1300 | – |
| Cc1cccc(Cn2c(CN3CCN(C(=O)c4ccco4)CC3)nc3c2c(=O)n(C)c(=O)n3C)c1 [CM055] | – | – | IC50 (ALDH1A2): > 100 µM; IC50 (ALDH3A1): > 100 µM |
| CN1CCN(C(=O)c2ccc3c(c2)N(Cc2ccccc2)CCS3)CC1 [CM306] | 3500 | 3500 | – |
| Cc1nc2ccccc2c2oc(C(=O)N3CCCCC3)cc12 [CM038] | 260 | 260 | IC50 (ALDH1A1; propionaldehyde oxidation, values in nM, read-out: IC50 with ALDH1A1): < 300 nM |
| CCOc1cc(S(=O)(=O)NCc2cccnc2)c(C)cc1C [CM009] | 5300 | 5300 | – |
| CC(C)CCn1c(CN2CCC(C(N)=O)CC2)nc2c1c(=O)n(C)c(=O)n2C [CM053] | – | – | IC50 (ALDH3A1): > 100 µM |
| Cc1cc(C)c(S(=O)(=O)Nc2ccc(O)c(Cl)c2)cc1C [CM047] | 310 | 310 | – |
| CCC(C)NC(=O)C1(O)c2cc(Br)ccc2NC(O)N1c1ccc(Cl)cc1 (stereo not drawn) [CM020] | 450 | 450 | – |
| CCN1CCN(Cc2nc3c(c(=O)n(C)c(=O)n3C)n2CC(=O)c2ccccc2)CC1 [CM027] | – | – | IC50 (ALDH1A1; Table 4, NI/NI(A) at 100 μM compound, * <70% maximum inhibition, read-out: IC50 in μM (SE) ALDH1A1): 6100 nM |
| Cc1ccc(S(=O)(=O)NCC2CCC(C(=O)NCc3ccco3)CC2)cc1 (stereo not drawn) [CM307] | 570 | 570 | – |
| COc1ccc(S(=O)(=O)N2N=C(c3cccc(NS(C)(=O)=O)c3)CC2c2ccco2)cc1 (stereo not drawn) [CM045] | 2500 | 2500 | – |
| Cc1ccc(-c2nnc(N3CCN(C)CC3)c3ccccc23)cc1C [CM001] | 1100 | 1100 | – |
| CC(C)CCn1c(CN2CCC(C)CC2)nc2c1c(=O)n(C)c(=O)n2C [CM057] | – | – | IC50 (ALDH3A1): > 100 µM |
| NC(=O)CSc1nc2c(sc3ccccc32)c(=O)n1CCCN1CCCC1 [CM037a] | 23000 | – | – |
| Cc1ccc(Cn2c(CN3CCN(c4ccccc4)CC3)nc3c2c(=O)n(C)c(=O)n3C)cc1 [CM025] | – | – | IC50 (ALDH3A1): > 100 µM |
| CCN(CC)c1ccc(C=O)cc1 [DEAB, diethylaminobenzaldehyde, reference compound] | – | – | formation of spheres (IGROV1 cells): completely inhibited |
